According to ChEMBL document CHEMBL1914417 (Bioorg Med Chem Lett, 2011):
Active and inactive are the calls of the source. The rule behind the calls is not given here.

Assays:
Format in all cases: functional, cell-based
[1] = target: T1, Muscarinic acetylcholine receptor M4 (Rattus norvegicus, UniProt P08485); assay: Agonist activity at rat muscarinic M4 receptor expressed in CHO cells
T1 sequence (P08485 whole entry): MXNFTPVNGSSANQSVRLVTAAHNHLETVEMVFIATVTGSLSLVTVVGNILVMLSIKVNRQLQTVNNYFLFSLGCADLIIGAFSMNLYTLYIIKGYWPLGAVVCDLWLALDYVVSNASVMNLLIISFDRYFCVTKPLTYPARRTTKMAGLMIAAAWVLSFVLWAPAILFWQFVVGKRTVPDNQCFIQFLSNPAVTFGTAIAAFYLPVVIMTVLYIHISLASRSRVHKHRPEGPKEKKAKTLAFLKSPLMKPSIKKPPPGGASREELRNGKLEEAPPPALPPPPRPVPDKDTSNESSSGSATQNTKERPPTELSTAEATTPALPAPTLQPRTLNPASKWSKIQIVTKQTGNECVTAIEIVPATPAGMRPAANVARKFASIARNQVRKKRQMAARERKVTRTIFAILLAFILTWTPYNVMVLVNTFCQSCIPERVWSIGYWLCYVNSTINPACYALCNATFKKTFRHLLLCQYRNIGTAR

[2] = target: T2, Muscarinic acetylcholine receptor M5 (Rattus norvegicus, UniProt P08911); assay: Agonist activity at rat muscarinic M5 receptor expressed in CHO cells
T2 sequence (P08911 whole entry): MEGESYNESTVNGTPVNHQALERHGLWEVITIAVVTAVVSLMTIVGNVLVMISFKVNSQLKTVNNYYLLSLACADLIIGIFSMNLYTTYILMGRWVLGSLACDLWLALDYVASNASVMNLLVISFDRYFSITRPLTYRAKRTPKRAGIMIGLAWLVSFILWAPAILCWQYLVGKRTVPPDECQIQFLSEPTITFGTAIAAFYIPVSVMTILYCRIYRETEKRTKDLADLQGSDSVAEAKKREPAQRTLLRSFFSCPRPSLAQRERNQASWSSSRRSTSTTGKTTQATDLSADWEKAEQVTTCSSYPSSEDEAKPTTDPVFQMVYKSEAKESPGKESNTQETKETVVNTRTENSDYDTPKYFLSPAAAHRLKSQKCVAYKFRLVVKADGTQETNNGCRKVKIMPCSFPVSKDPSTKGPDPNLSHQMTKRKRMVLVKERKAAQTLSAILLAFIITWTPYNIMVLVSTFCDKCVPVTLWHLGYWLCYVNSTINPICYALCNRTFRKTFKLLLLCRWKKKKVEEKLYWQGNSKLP

[3] = target: T3, Muscarinic acetylcholine receptor M2 (Rattus norvegicus, UniProt P10980); assay: Agonist activity at rat muscarinic M2 receptor expressed in CHO cells
T3 sequence (P10980 whole entry): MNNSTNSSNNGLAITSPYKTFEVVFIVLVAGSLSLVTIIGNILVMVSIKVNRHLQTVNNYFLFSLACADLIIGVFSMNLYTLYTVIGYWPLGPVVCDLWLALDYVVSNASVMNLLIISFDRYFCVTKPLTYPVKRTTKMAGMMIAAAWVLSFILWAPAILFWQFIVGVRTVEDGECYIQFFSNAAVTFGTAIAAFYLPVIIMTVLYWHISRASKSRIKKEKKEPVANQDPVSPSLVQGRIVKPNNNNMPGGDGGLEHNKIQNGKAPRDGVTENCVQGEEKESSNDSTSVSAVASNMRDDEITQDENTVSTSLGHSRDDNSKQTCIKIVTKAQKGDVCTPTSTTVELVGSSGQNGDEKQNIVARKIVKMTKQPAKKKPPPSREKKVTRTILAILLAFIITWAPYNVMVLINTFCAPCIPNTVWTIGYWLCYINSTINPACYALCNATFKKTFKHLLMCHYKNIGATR

[4] = target: Muscarinic acetylcholine receptor M3 (Rattus norvegicus, UniProt P08483); assay: Agonist activity at rat muscarinic M3 receptor expressed in CHO cells
Chain of Muscarinic acetylcholine receptor M3 (P08483 whole entry): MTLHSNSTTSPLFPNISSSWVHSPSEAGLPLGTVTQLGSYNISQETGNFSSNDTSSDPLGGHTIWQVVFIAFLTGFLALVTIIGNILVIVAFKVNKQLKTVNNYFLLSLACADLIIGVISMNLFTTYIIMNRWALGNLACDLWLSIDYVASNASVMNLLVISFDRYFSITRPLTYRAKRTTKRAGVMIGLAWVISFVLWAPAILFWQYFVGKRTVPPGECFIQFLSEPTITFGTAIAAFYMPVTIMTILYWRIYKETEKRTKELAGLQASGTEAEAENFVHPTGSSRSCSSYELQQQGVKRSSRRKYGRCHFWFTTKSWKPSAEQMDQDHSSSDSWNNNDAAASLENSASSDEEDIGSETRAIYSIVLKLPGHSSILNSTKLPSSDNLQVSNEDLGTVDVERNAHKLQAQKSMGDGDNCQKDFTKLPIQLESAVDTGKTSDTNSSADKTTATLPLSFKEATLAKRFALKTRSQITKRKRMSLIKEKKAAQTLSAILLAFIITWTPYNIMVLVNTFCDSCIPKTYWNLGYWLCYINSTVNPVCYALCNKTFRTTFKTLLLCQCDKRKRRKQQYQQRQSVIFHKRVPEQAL

[5] = target: T4, Muscarinic acetylcholine receptor M1 (Rattus norvegicus, UniProt P08482); assay: Agonist activity at rat muscarinic M1 receptor expressed in CHO cells
T4 sequence (P08482 whole entry): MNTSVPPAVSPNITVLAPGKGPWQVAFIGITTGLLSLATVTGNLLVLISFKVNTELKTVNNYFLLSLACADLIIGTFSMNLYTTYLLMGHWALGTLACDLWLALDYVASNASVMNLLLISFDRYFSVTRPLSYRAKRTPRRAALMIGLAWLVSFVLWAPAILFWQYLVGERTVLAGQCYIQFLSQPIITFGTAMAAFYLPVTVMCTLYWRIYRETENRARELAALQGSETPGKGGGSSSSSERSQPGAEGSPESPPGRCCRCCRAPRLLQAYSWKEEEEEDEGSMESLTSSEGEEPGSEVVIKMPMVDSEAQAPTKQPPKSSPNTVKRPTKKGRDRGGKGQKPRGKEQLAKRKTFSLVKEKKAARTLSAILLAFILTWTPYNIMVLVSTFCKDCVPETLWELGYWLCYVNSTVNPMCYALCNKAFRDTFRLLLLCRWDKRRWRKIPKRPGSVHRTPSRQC

[6] = target: T5, Muscarinic acetylcholine receptor M1 (Rattus norvegicus) (UniProt P08482); assay: Agonist activity at rat muscarinic M1 receptor expressed in CHO cells relative to acetylcholine
T5 sequence (whole entry): T4 sequence (P08482 whole entry)

[7] = target: T5, Muscarinic acetylcholine receptor M1 (Rattus norvegicus); assay: Agonist activity at rat muscarinic M1 receptor expressed in CHO cells at 10 uM

CCOC(=O)N1CCC(N2CCC[C@@H](NC(=O)c3ccccc3)C2)CC1
EC50 [1]: > 10 µM
EC50 [2]: > 10 µM
EC50 [3]: > 10 µM
EC50 [4]: > 10 µM
EC50 [5]: 0.13 µM
Emax [6]: 91%

CCOC(=O)N1CCC(N2CCC[C@@H](NC(=O)c3ccccc3Cl)C2)CC1
EC50 [1]: > 10 µM
EC50 [2]: > 10 µM
EC50 [3]: > 10 µM
EC50 [4]: > 10 µM
Emax [6]: 57%

CCOC(=O)N1CCC(N2CC[C@H](NC(=O)c3ccccc3C)C2)CC1
activation [7]: < 30%

CCOC(=O)N1CCC(N2CCC[C@@H](NC(=O)c3cccc(OC)c3)C2)CC1
EC50 [1]: > 10 µM
EC50 [2]: > 10 µM
EC50 [3]: > 10 µM
EC50 [4]: > 10 µM
EC50 [5]: 0.25 µM
Emax [6]: 91%

CCOC(=O)N1CCC(N2CCC[C@@H](NC(=O)c3ccc(OC)cc3)C2)CC1
EC50 [1]: > 10 µM
EC50 [2]: > 10 µM
EC50 [3]: > 10 µM
EC50 [4]: > 10 µM
Emax [6]: 63%

CCOC(=O)N1CCC(N2CCC[C@@H](NC(=O)C3CCCCC3)C2)CC1
EC50 [1]: > 10 µM
EC50 [2]: > 10 µM
EC50 [3]: > 10 µM
EC50 [4]: > 10 µM
Emax [6]: 44%

CCOC(=O)N1CCC(N2CC[C@@H](NC(=O)c3ccccc3C)C2)CC1
activation [7]: < 30%

CCOC(=O)N1CCC(N2CCN(C(=O)c3ccccc3C)CC2)CC1
activation [7]: < 30%

CCOC(=O)N1CCC(N[C@H]2CCN(C(=O)c3ccccc3C)C2)CC1
activation [7]: < 30%

CCOC(=O)N1CCC(N2C[C@H]3CN(C(=O)c4ccccc4C)C[C@H]3C2)CC1
activation [7]: < 30%

CCOC(=O)N1CCC(N2CCC[C@@H](NC(=O)c3cccs3)C2)CC1
EC50 [1]: > 10 µM
EC50 [2]: > 10 µM
EC50 [3]: > 10 µM
EC50 [4]: > 10 µM
Emax [6]: 61%

CCOC(=O)N1CCC(N2C[C@@H]3C[C@H]2CN3C(=O)c2ccccc2C)CC1
activation [7]: < 30%

CCOC(=O)N1CCC(N[C@@H]2CCN(C(=O)c3ccccc3C)C2)CC1
activation [7]: < 30%

CCOC(=O)N1CCC(N2CCC[C@H](NC(=O)c3ccccc3C)C2)CC1
activation [7]: inactive

CCOC(=O)N1CCC(N2CCC[C@@H](NC(=O)c3ccc(C)cc3)C2)CC1
EC50 [1]: > 10 µM
EC50 [2]: > 10 µM
EC50 [3]: > 10 µM
EC50 [4]: > 10 µM
Emax [6]: 41%

CCOC(=O)N1CCC(N2CCC[C@@H](NC(=O)C3CCCC3)C2)CC1
EC50 [1]: > 10 µM
EC50 [2]: > 10 µM
EC50 [3]: > 10 µM
EC50 [4]: > 10 µM
Emax [6]: 35%

CCOC(=O)N1CCC(N2CCC[C@@H](NC(=O)c3ccc(F)c(F)c3)C2)CC1
EC50 [1]: > 10 µM
EC50 [2]: > 10 µM
EC50 [3]: > 10 µM
EC50 [4]: > 10 µM
Emax [6]: 84%

CCOC(=O)N1CCC(N2CCC[C@@H](NC(=O)c3ccc(F)cc3C)C2)CC1
EC50 [1]: > 10 µM
EC50 [2]: > 10 µM
EC50 [3]: > 10 µM
EC50 [4]: > 10 µM
EC50 [5]: 0.06 µM
Emax [6]: 77%

CCOC(=O)N1CCC(N2CCC[C@@H](NC(=O)c3cccc(F)c3)C2)CC1
EC50 [1]: > 10 µM
EC50 [2]: > 10 µM
EC50 [3]: > 10 µM
EC50 [4]: > 10 µM
EC50 [5]: 0.14 µM
Emax [6]: 92%
